In the NIST ThermoML archive (doi:10.1021/je800046k):

Assay: xn = mol fraction of the nth substance listed
Conditions: for surface tension liquid-gas: Pendant drop shape; for mass density: 101 kPa, Liquid

CC(=O)OCC(C)C [2-methylpropyl ethanoate] + Cc1cc(C)cc(C)c1
Conditions | mass density [kg/m3] | surface tension liquid-gas [mN/m]
298.15 K, x1 = 0.051 | 861.07 | 27.76
298.15 K, x1 = 0.1006 | 861.07 | 27.49
298.15 K, x1 = 0.1506 | 861.09 | 27.2
298.15 K, x1 = 0.2004 | 861.14 | 26.91
298.15 K, x1 = 0.2498 | 861.2 | 26.62
298.15 K, x1 = 0.3003 | 861.29 | 26.31
298.15 K, x1 = 0.35 | 861.41 | 26.04
298.15 K, x1 = 0.4004 | 861.56 | 25.77
298.15 K, x1 = 0.4502 | 861.74 | 25.49
298.15 K, x1 = 0.5004 | 861.94 | 25.23
298.15 K, x1 = 0.5499 | 862.17 | 24.99
298.15 K, x1 = 0.5996 | 862.44 | 24.75
298.15 K, x1 = 0.6494 | 862.74 | 24.52
298.15 K, x1 = 0.6998 | 863.09 | 24.31
298.15 K, x1 = 0.7498 | 863.46 | 24.1
298.15 K, x1 = 0.8007 | 863.89 | 23.91
298.15 K, x1 = 0.8502 | 864.36 | 23.7
298.15 K, x1 = 0.8998 | 864.88 | 23.55
298.15 K, x1 = 0.9491 | 865.43 | 23.37
298.15 K, x1 = 1 | 866.06 | 23.15
308.15 K, x1 = 0.0513 | 852.75 | 26.89
308.15 K, x1 = 0.0999 | 852.66 | 26.61
308.15 K, x1 = 0.1503 | 852.57 | 26.3
308.15 K, x1 = 0.2007 | 852.51 | 26
308.15 K, x1 = 0.2505 | 852.48 | 25.7
308.15 K, x1 = 0.3013 | 852.45 | 25.39
308.15 K, x1 = 0.35 | 852.46 | 25.1
308.15 K, x1 = 0.4002 | 852.49 | 24.82
308.15 K, x1 = 0.4506 | 852.56 | 24.55
308.15 K, x1 = 0.5 | 852.64 | 24.29
308.15 K, x1 = 0.5505 | 852.78 | 24.03
308.15 K, x1 = 0.5997 | 852.91 | 23.77
308.15 K, x1 = 0.6503 | 853.09 | 23.53
308.15 K, x1 = 0.6995 | 853.32 | 23.32
308.15 K, x1 = 0.75 | 853.57 | 23.09
308.15 K, x1 = 0.8002 | 853.86 | 22.89
308.15 K, x1 = 0.8502 | 854.21 | 22.7
308.15 K, x1 = 0.8997 | 854.61 | 22.52
308.15 K, x1 = 0.9498 | 855.03 | 22.35
308.15 K, x1 = 1 | 855.51 | 22.16
313.15 K, x1 = 0.0494 | 848.6 | 26.45
313.15 K, x1 = 0.1 | 848.45 | 26.14
313.15 K, x1 = 0.1493 | 848.33 | 25.81
313.15 K, x1 = 0.2002 | 848.2 | 25.52
313.15 K, x1 = 0.2499 | 848.1 | 25.2
313.15 K, x1 = 0.299 | 848.03 | 24.92
313.15 K, x1 = 0.3492 | 847.98 | 24.62
313.15 K, x1 = 0.3988 | 847.95 | 24.33
313.15 K, x1 = 0.4492 | 847.96 | 24.06
313.15 K, x1 = 0.5003 | 847.98 | 23.78
313.15 K, x1 = 0.5518 | 848.05 | 23.51
313.15 K, x1 = 0.5992 | 848.13 | 23.28
313.15 K, x1 = 0.6503 | 848.26 | 23.02
313.15 K, x1 = 0.6995 | 848.41 | 22.78
313.15 K, x1 = 0.7512 | 848.61 | 22.56
313.15 K, x1 = 0.8005 | 848.85 | 22.35
313.15 K, x1 = 0.8499 | 849.13 | 22.14
313.15 K, x1 = 0.9002 | 849.43 | 21.98
313.15 K, x1 = 0.9504 | 849.8 | 21.81
313.15 K, x1 = 1 | 850.16 | 21.64

Cc1cc(C)cc(C)c1 [1,3,5-trimethylbenzene] + CC(=O)OC(C)C
Conditions | mass density [kg/m3] | surface tension liquid-gas [mN/m]
298.15 K, x2 = 0 | 861.12 | 28.05
298.15 K, x2 = 0.0495 | 861.03 | 27.68
298.15 K, x2 = 0.1008 | 861.01 | 27.28
298.15 K, x2 = 0.1504 | 860.99 | 26.92
298.15 K, x2 = 0.199 | 861.02 | 26.52
298.15 K, x2 = 0.2514 | 861.07 | 26.15
298.15 K, x2 = 0.2996 | 861.13 | 25.79
298.15 K, x2 = 0.351 | 861.25 | 25.42
298.15 K, x2 = 0.4009 | 861.36 | 25.07
298.15 K, x2 = 0.4502 | 861.53 | 24.71
298.15 K, x2 = 0.5002 | 861.71 | 24.37
298.15 K, x2 = 0.5497 | 861.96 | 24.05
298.15 K, x2 = 0.6001 | 862.22 | 23.72
298.15 K, x2 = 0.6502 | 862.53 | 23.42
298.15 K, x2 = 0.7003 | 862.88 | 23.14
298.15 K, x2 = 0.7496 | 863.29 | 22.88
298.15 K, x2 = 0.7987 | 863.73 | 22.65
298.15 K, x2 = 0.8498 | 864.28 | 22.46
298.15 K, x2 = 0.8998 | 864.85 | 22.28
298.15 K, x2 = 0.9505 | 865.52 | 22.06
308.15 K, x2 = 0 | 852.94 | 27.21
308.15 K, x2 = 0.0501 | 852.69 | 26.78
308.15 K, x2 = 0.0993 | 852.53 | 26.37
308.15 K, x2 = 0.1514 | 852.38 | 25.94
308.15 K, x2 = 0.2 | 852.27 | 25.55
308.15 K, x2 = 0.2514 | 852.16 | 25.16
308.15 K, x2 = 0.3018 | 852.09 | 24.8
308.15 K, x2 = 0.353 | 852.03 | 24.42
308.15 K, x2 = 0.3991 | 852.01 | 24.06
308.15 K, x2 = 0.4503 | 852 | 23.69
308.15 K, x2 = 0.4993 | 852.03 | 23.35
308.15 K, x2 = 0.5492 | 852.08 | 23.01
308.15 K, x2 = 0.6 | 852.18 | 22.67
308.15 K, x2 = 0.65 | 852.3 | 22.36
308.15 K, x2 = 0.7003 | 852.47 | 22.05
308.15 K, x2 = 0.7499 | 852.68 | 21.79
308.15 K, x2 = 0.7993 | 852.92 | 21.52
308.15 K, x2 = 0.8488 | 853.23 | 21.31
308.15 K, x2 = 0.9004 | 853.61 | 21.14
308.15 K, x2 = 0.9506 | 854.03 | 20.92
313.15 K, x2 = 0 | 848.82 | 26.78
313.15 K, x2 = 0.0498 | 848.53 | 26.33
313.15 K, x2 = 0.1001 | 848.29 | 25.9
313.15 K, x2 = 0.1495 | 848.08 | 25.45
313.15 K, x2 = 0.2006 | 847.88 | 25.06
313.15 K, x2 = 0.25 | 847.71 | 24.67
313.15 K, x2 = 0.3005 | 847.55 | 24.28
313.15 K, x2 = 0.3497 | 847.43 | 23.9
313.15 K, x2 = 0.3998 | 847.3 | 23.54
313.15 K, x2 = 0.4508 | 847.22 | 23.18
313.15 K, x2 = 0.4998 | 847.16 | 22.82
313.15 K, x2 = 0.5496 | 847.13 | 22.49
313.15 K, x2 = 0.6007 | 847.12 | 22.13
313.15 K, x2 = 0.6504 | 847.16 | 21.83
313.15 K, x2 = 0.7 | 847.23 | 21.5
313.15 K, x2 = 0.7495 | 847.33 | 21.22
313.15 K, x2 = 0.7993 | 847.48 | 20.96
313.15 K, x2 = 0.8507 | 847.68 | 20.73
313.15 K, x2 = 0.9008 | 847.93 | 20.52
313.15 K, x2 = 0.9504 | 848.25 | 20.36
